Series [1] concerns WI-38 lung fibroblasts. Kind of series: TGF-β induced collagen production in WI-38 lung fibroblasts (immunofluorescent imaging). Format: cell-based. To be noted: serum starved WI-38, TGF-β 5 ng/ml, 48 hours, quinacrine 2.5 μM; FIG. 2D. Here is the method: It is well established that during fibrotic diseases, fibroblasts and epithelial cells are transformed in myofibroblasts (mesenchymal cells), which secrete excess amount of extracellular matrix (ECM), one of the major components being interstitial collagen at the site of tissue injury. Serum starved WI-38 lung fibroblasts were activated with TGF-β (5 ng/ml; 48 hours), and QA's efficacy's in inhibiting collagen production due to transition of fibroblasts in collagen-secreting fibroblasts was tested.

Series [2] deals with HBE cells. The series is described as follows: TGF-β induced epithelial-mesenchymal transition (EMT) in HBE cells, cell imaging. Format: cell-based, human. To be noted: TGF-β 10 ng/mL, QA 0.5, 1, 2.5 and 5 μM tested, 24 and 48 hours, FIG. 4. Here is the method: For TGF-β induced epithelial mesenchymal transition (EMT) images, HBE cells (50,000 cells/well) were seeded in a 6-well culture plate. Next day, all treatments (except the medium control) were starved with replacement of growth factor-absent media. After 24 hours incubation, the QA treatments were administered: 0.5, 1, 2.5, and 5 μM. Each treatment also included 10 ng/mL of TGF-β. The remaining 2 wells were treated with regular media and TGF-β as the negative control and positive control, respectively. Individual images of the cells were taken with an EVOS-FL Cell imaging fluorescence microscope (Thermo Fisher Scientific, Waltham, MA, USA) after 24 and 48 hours.
EMT is presented by morphological changes following TGF-beta treatment, and subsequent reversal with QA treatment.

Series [3] concerns primary human bronchial epithelial (HBE) cells. Kind of series: Cell viability of HBE cells (Cell Titer Blue cell viability kit). Format: cell-based. To be noted: QA 0.039-10 μM, 24 hours, FIG. 3. Here is the method: A cell viability study was carried out on HBE cells using Cell Titer Blue cell viability kit. Briefly, cells were treated with varying concentrations of QA (0.039-10 μM), for 24 hours, and media was used as a control. Fluorescence readings were taken at 540/590 nm using a Spark 10M Plate Reader (Tecan, Switzerland).

The subject of series [4] is WI-38 lung fibroblasts. The series is described as follows: Growth factor induced hyper-proliferation of WI-38 lung fibroblasts.
Series [5] has as its system A549 alveolar epithelial cells. The series is described as follows: TGF-β induced epithelial-mesenchymal transition (EMT) in A549 cells: morphology and E-cadherin expression.

The structures appear in SMILES notation.

Consider `CCN(CC)CCCC(C)Nc1c2ccc(Cl)cc2nc2ccc(OC)cc12` (stereo not shown) [QA, quinacrine], for which the collagen expression entry in series [1] was “significantly reduced”. For the same compound, the “lowest concentrations that effectively inhibited TGF-beta induced EMT (morphological changes)” value in series [2] is recorded as 0.5-1 μM. For the same compound, in series [3], the cell viability is above 85%. For the same compound, the FGF induced hyper-proliferation result in series [4] (WI-38, FGF 10 ng/ml, 72 hours, FIG. 2C) was “dose-dependent reduction”. For the same compound, the PDGF-BB induced hyper-proliferation result in series [4] (WI-38, PDGF-BB 10 ng/ml, 72 hours, FIG. 2B) is “dose-dependent reduction”. In addition, the “fibroblast proliferation in the presence of TGF-β” value in series [4] (WI-38, TGF-β 10 ng/ml, 48 hours, FIG. 2A) is reported as “dose-dependent reduction”. The “viability (cytotoxicity of the QA doses used)” value in series [4] (WI-38 lung fibroblasts, all doses of QA used in the proliferation study) is above 90%. In series [5] (A549 cells co-incubated with QA 2.5 μM and TGF-β 5 ng/ml, TGF-β alone gave 40% reduction, FIGS. 1C-D), the “E-cadherin expression, western blot (compared to β-actin)” value is “completely restored”. Further, the “E-cadherin expression, immunofluorescence” value in series [5] (A549 cells, TGF-β 5 ng/ml, 48 h, simultaneous QA 2.5 μM, FIG. 1B) is listed as “restored”. Moreover, in series [5] (serum starved A549 cells, TGF-β 5 ng/ml with simultaneous QA 2.5 μM, FIG. 1A), the “cell morphology, protection against TGF-β induced EMT” value is reported as “reversing fibroblastic morphology induced by TGF-β treatment”.

Source of the values: patent US20230404995A1, “COMPOSITIONS AND METHODS FOR TREATING PULMONARY FIBROSIS” (priority 2020, published 2023).
